The structures appear in SMILES notation.

The record followed here is US20250296938A1, “Compounds that Interact with the Ras Superfamily for the Treatment of Cancers, Inflammatory Diseases, Rasopathies, and Fibrotic Disease” (SHY Therapeutics, LLC, priority 2018, published 2025).

The test system of one assay is HRas wild type. Description: Ras GTP binding domain inhibition assay (Cy3-GTP/Cy5-GTP competition). The arrangement: species or system human. The following applies: at 20 μM, with SOS. The method, boiled down:
(§1)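 First, His-tagged protein is coated on nickel wells overnight at 4 °C. Next, compound (20 μM single point or serial dilution) is added for 3 h at room temperature, with or without Sos exchange factor in the last hour. Finally, 100 nM labelled GTP binds for 45 min and retained signal is measured.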
As for `COc1cccc(-c2sc3nc(-c4nccn4C)nc(NC4CCC(OC)C4)c3c2-c2ccccc2)c1F` (centres unmarked) [drawing 1020], the “HRAS wild type + SOS: % inh.” value is “D (76-100% inhibition)”.
Same read-out and setting: to `COC1CCC(Nc2nc(-c3nccn3C)nc3sc(-c4cccc5[nH]ncc45)c(-c4ccccc4)c23)C1` (centres unmarked) [drawing 1023] belongs “D (76-100% inhibition)”.
As for `CO[C@H]1C[C@@H](Nc2nc(-c3ccccn3)nc3sccc23)C1` [drawing 1037], the “HRAS wild type + SOS: % inh.” value was “D (76-100% inhibition)”.
In the case of `CO[C@H]1C[C@@H](Nc2nc(-c3nccn3C)nc3sccc23)C1` [drawing 1038], the “HRAS wild type + SOS: % inh.” value was “D (76-100% inhibition)”.
As to `CO[C@H]1C[C@@H](Nc2nc(-c3nccn3C)nc3sc(-c4ccn(C)n4)c(-c4ccccc4)c23)C1.Cl` [drawing 1040], the “HRAS wild type + SOS: % inh.” value is “D (76-100% inhibition)”.
The same measure, in the same setting: to `CO[C@H]1C[C@H](Nc2nc(-c3nccn3C)nc3sc(-c4ccn(C)n4)c(-c4ccccc4)c23)C1` [drawing 1041] belongs “D (76-100% inhibition)”; to `CN(C)CCOCCNc1nc(-c2nccn2C)nc2sc(-c3ccn(C)n3)c(-c3ccccc3)c12` [drawing 1042], “D (76-100% inhibition)”.

Still in this assay, the particulars now being: at 20 μM, without SOS.
For the molecule `COc1cccc(-c2sc3nc(-c4nccn4C)nc(NC4CCC(OC)C4)c3c2-c2ccccc2)c1F` (centres unmarked) [drawing 1020], the “HRas wild type % inh.” value was “B (26-50% inhibition)”.
On to `COC1CCC(Nc2nc(-c3nccn3C)nc3sc(-c4cccc5[nH]ncc45)c(-c4ccccc4)c23)C1` (centres unmarked) [drawing 1023], for which the “HRas wild type % inh.” value is “B (26-50% inhibition)”.
Consider `CO[C@H]1C[C@@H](Nc2nc(-c3ccccn3)nc3sccc23)C1` [drawing 1037], for which the “HRas wild type % inh.” value is recorded as “C (51-75% inhibition)”.
Regarding `CO[C@H]1C[C@@H](Nc2nc(-c3nccn3C)nc3sccc23)C1` [drawing 1038], the “HRas wild type % inh.” value is recorded as “C (51-75% inhibition)”.
On to `CO[C@H]1C[C@@H](Nc2nc(-c3nccn3C)nc3sc(-c4ccn(C)n4)c(-c4ccccc4)c23)C1.Cl` [drawing 1040], for which the “HRas wild type % inh.” value is “B (26-50% inhibition)”.
For `CO[C@H]1C[C@H](Nc2nc(-c3nccn3C)nc3sc(-c4ccn(C)n4)c(-c4ccccc4)c23)C1` [drawing 1041], the “HRas wild type % inh.” value is given as “B (26-50% inhibition)”.
Regarding `CN(C)CCOCCNc1nc(-c2nccn2C)nc2sc(-c3ccn(C)n3)c(-c3ccccc3)c12` [drawing 1042], the “HRas wild type % inh.” value was “B (26-50% inhibition)”.

Another assay concerns the target T1, KRas G12D mutant (Homo sapiens, UniProt P01116, G12D).
T1 construct: fused on or other part: His tag, used for capture on nickel-coated plates
The assay is described as above. The following applies: at 20 μM, with SOS. An outline of the steps:
as §1
In the case of `COc1cccc(-c2sc3nc(-c4nccn4C)nc(NC4CCC(OC)C4)c3c2-c2ccccc2)c1F` (centres unmarked) [drawing 1020], the “KRas G12D mutant + SOS: % inh.” value was “C (51-75% inhibition)”.

The same assay, now with this note: at 20 μM, with SOS; read-out: KRas G12D mutant + SOS: % inh.
As to `COC1CCC(Nc2nc(-c3nccn3C)nc3sc(-c4cccc5[nH]ncc45)c(-c4ccccc4)c23)C1` (centres unmarked) [drawing 1023], the inhibition at 20 µM lay in the range of 26 to 50%.
`CO[C@H]1C[C@@H](Nc2nc(-c3ccccn3)nc3sccc23)C1` [drawing 1037]: the inhibition at 20 µM lay within 51 to 75%.
With `CO[C@H]1C[C@@H](Nc2nc(-c3nccn3C)nc3sccc23)C1` [drawing 1038], the inhibition at 20 µM was in the range of 76 to 100%.
The same measure, in the same setting: to `CO[C@H]1C[C@@H](Nc2nc(-c3nccn3C)nc3sc(-c4ccn(C)n4)c(-c4ccccc4)c23)C1.Cl` [drawing 1040] belongs 51 to 75%; to `CO[C@H]1C[C@H](Nc2nc(-c3nccn3C)nc3sc(-c4ccn(C)n4)c(-c4ccccc4)c23)C1` [drawing 1041], 51 to 75%.
In the case of `CN(C)CCOCCNc1nc(-c2nccn2C)nc2sc(-c3ccn(C)n3)c(-c3ccccc3)c12` [drawing 1042], the inhibition at 20 µM is 51 to 75%.

Staying with this assay, now noted: at 20 μM, without SOS.
Regarding `COc1cccc(-c2sc3nc(-c4nccn4C)nc(NC4CCC(OC)C4)c3c2-c2ccccc2)c1F` (centres unmarked) [drawing 1020], the “KRas G12D mutant: % inh.” value is reported as “B (26-50% inhibition)”.

The assay is the same for the next values; noted with them: at 20 μM, without SOS; read-out: KRas G12D mutant: % inh.
Turning to `COC1CCC(Nc2nc(-c3nccn3C)nc3sc(-c4cccc5[nH]ncc45)c(-c4ccccc4)c23)C1` (centres unmarked) [drawing 1023], the inhibition at 20 µM is 26 to 50%.
The same measure, in the same setting: to `CO[C@H]1C[C@@H](Nc2nc(-c3ccccn3)nc3sccc23)C1` [drawing 1037] belongs 51 to 75%; to `CO[C@H]1C[C@@H](Nc2nc(-c3nccn3C)nc3sccc23)C1` [drawing 1038], 76 to 100%.
In the case of `CO[C@H]1C[C@@H](Nc2nc(-c3nccn3C)nc3sc(-c4ccn(C)n4)c(-c4ccccc4)c23)C1.Cl` [drawing 1040], the inhibition at 20 µM was in the range of 26 to 50%.
As to `CO[C@H]1C[C@H](Nc2nc(-c3nccn3C)nc3sc(-c4ccn(C)n4)c(-c4ccccc4)c23)C1` [drawing 1041], the inhibition at 20 µM was 26 to 50%.
As to `CN(C)CCOCCNc1nc(-c2nccn2C)nc2sc(-c3ccn(C)n3)c(-c3ccccc3)c12` [drawing 1042], the inhibition at 20 µM was 26 to 50%.

In the next assay the target is Rho-A (Homo sapiens, UniProt P61586). Described as above. The following applies: at 20 μM, with SOS. The method, boiled down: as §1
`COc1cccc(-c2sc3nc(-c4nccn4C)nc(NC4CCC(OC)C4)c3c2-c2ccccc2)c1F` (centres unmarked) [drawing 1020]: the “Rho-A + SOS: % inh.” value is reported as “A (1-25% inhibition)”.

The assay is the same for the next values; noted with them: at 20 μM, without SOS.
For `COc1cccc(-c2sc3nc(-c4nccn4C)nc(NC4CCC(OC)C4)c3c2-c2ccccc2)c1F` (centres unmarked) [drawing 1020], the “Rho-A: % inh.” value is on record as “A (1-25% inhibition)”.

Staying with this assay, now noted: with SOS, read-out: Rho-A + SOS: % inh.
In the case of `COC1CCC(Nc2nc(-c3nccn3C)nc3sc(-c4cccc5[nH]ncc45)c(-c4ccccc4)c23)C1` (centres unmarked) [drawing 1023], the inhibition at 20 µM is 1 to 25%.
Take `CO[C@H]1C[C@@H](Nc2nc(-c3ccccn3)nc3sccc23)C1` [drawing 1037]: the inhibition at 20 µM fell in the range of 51 to 75%.
Take `CO[C@H]1C[C@@H](Nc2nc(-c3nccn3C)nc3sccc23)C1` [drawing 1038]: the inhibition at 20 µM lay within 26 to 50%.
In the case of `CO[C@H]1C[C@@H](Nc2nc(-c3nccn3C)nc3sc(-c4ccn(C)n4)c(-c4ccccc4)c23)C1.Cl` [drawing 1040], the inhibition at 20 µM was 51 to 75%.
Turning to `CO[C@H]1C[C@H](Nc2nc(-c3nccn3C)nc3sc(-c4ccn(C)n4)c(-c4ccccc4)c23)C1` [drawing 1041], the inhibition at 20 µM lay within 51 to 75%.
Regarding `CN(C)CCOCCNc1nc(-c2nccn2C)nc2sc(-c3ccn(C)n3)c(-c3ccccc3)c12` [drawing 1042], the inhibition at 20 µM was in the range of 51 to 75%.

The assay is the same for the next values; noted with them: without SOS, read-out: Rho-A: % inh.
Consider `COC1CCC(Nc2nc(-c3nccn3C)nc3sc(-c4cccc5[nH]ncc45)c(-c4ccccc4)c23)C1` (centres unmarked) [drawing 1023], for which the inhibition at 20 µM was in the range of 26 to 50%.
Regarding `CO[C@H]1C[C@@H](Nc2nc(-c3ccccn3)nc3sccc23)C1` [drawing 1037], the inhibition at 20 µM fell in the range of 76 to 100%.
Same read-out and setting: then `CO[C@H]1C[C@@H](Nc2nc(-c3nccn3C)nc3sccc23)C1` [drawing 1038], with 76 to 100%; and `CO[C@H]1C[C@@H](Nc2nc(-c3nccn3C)nc3sc(-c4ccn(C)n4)c(-c4ccccc4)c23)C1.Cl` [drawing 1040], with 51 to 75%; and `CO[C@H]1C[C@H](Nc2nc(-c3nccn3C)nc3sc(-c4ccn(C)n4)c(-c4ccccc4)c23)C1` [drawing 1041], with 51 to 75%.
On to `CN(C)CCOCCNc1nc(-c2nccn2C)nc2sc(-c3ccn(C)n3)c(-c3ccccc3)c12` [drawing 1042], for which the inhibition at 20 µM was 51 to 75%.

The target of another assay is Rac-1 (Homo sapiens, UniProt P63000). The assay is described as above. The following applies: at 20 μM, with SOS. The method, boiled down: as §1
Consider `COc1cccc(-c2sc3nc(-c4nccn4C)nc(NC4CCC(OC)C4)c3c2-c2ccccc2)c1F` (centres unmarked) [drawing 1020], for which the “Rac-1 + SOS: % inh.” value was “B (26-50% inhibition)”.

The assay is the same for the next values; noted with them: at 20 μM, without SOS.
As for `COc1cccc(-c2sc3nc(-c4nccn4C)nc(NC4CCC(OC)C4)c3c2-c2ccccc2)c1F` (centres unmarked) [drawing 1020], the “Rac-1: % inh.” value was “C (51-75% inhibition)”.

The same assay, now with this note: with SOS, read-out: Rac-1 + SOS: % inh.
For the molecule `COC1CCC(Nc2nc(-c3nccn3C)nc3sc(-c4cccc5[nH]ncc45)c(-c4ccccc4)c23)C1` (centres unmarked) [drawing 1023], the inhibition at 20 µM was 51 to 75%.
In the case of `CO[C@H]1C[C@@H](Nc2nc(-c3ccccn3)nc3sccc23)C1` [drawing 1037], the inhibition at 20 µM was 76 to 100%.
For `CO[C@H]1C[C@@H](Nc2nc(-c3nccn3C)nc3sccc23)C1` [drawing 1038], the inhibition at 20 µM is 76 to 100%.
`CO[C@H]1C[C@@H](Nc2nc(-c3nccn3C)nc3sc(-c4ccn(C)n4)c(-c4ccccc4)c23)C1.Cl` [drawing 1040]: the inhibition at 20 µM lay within 76 to 100%.
Still for that read-out and setting: then `CO[C@H]1C[C@H](Nc2nc(-c3nccn3C)nc3sc(-c4ccn(C)n4)c(-c4ccccc4)c23)C1` [drawing 1041], with 51 to 75%; and `CN(C)CCOCCNc1nc(-c2nccn2C)nc2sc(-c3ccn(C)n3)c(-c3ccccc3)c12` [drawing 1042], with 51 to 75%.

The assay is the same for the next values; noted with them: without SOS, read-out: Rac-1: % inh.
On to `COC1CCC(Nc2nc(-c3nccn3C)nc3sc(-c4cccc5[nH]ncc45)c(-c4ccccc4)c23)C1` (centres unmarked) [drawing 1023], for which the inhibition at 20 µM was in the range of 51 to 75%.
With `CO[C@H]1C[C@@H](Nc2nc(-c3ccccn3)nc3sccc23)C1` [drawing 1037], the inhibition at 20 µM was in the range of 76 to 100%.
Turning to `CO[C@H]1C[C@@H](Nc2nc(-c3nccn3C)nc3sccc23)C1` [drawing 1038], the inhibition at 20 µM was in the range of 76 to 100%.
Turning to `CO[C@H]1C[C@@H](Nc2nc(-c3nccn3C)nc3sc(-c4ccn(C)n4)c(-c4ccccc4)c23)C1.Cl` [drawing 1040], the inhibition at 20 µM fell in the range of 51 to 75%.
`CO[C@H]1C[C@H](Nc2nc(-c3nccn3C)nc3sc(-c4ccn(C)n4)c(-c4ccccc4)c23)C1` [drawing 1041]: the inhibition at 20 µM was in the range of 51 to 75%.
In the case of `CN(C)CCOCCNc1nc(-c2nccn2C)nc2sc(-c3ccn(C)n3)c(-c3ccccc3)c12` [drawing 1042], the inhibition at 20 µM lay in the range of 51 to 75%.
